# Patent publication EP0474580B1, “Use of 1-[3-(dimethylamino)propyl]-1-phenylphthalenes for the treatment of cerebrovascular disorders” (priority 1990, dated 1992)
# Marks after values point to notes of the source that are not given here.
# How the values were obtained:
# [1] = test system: moderate dementia of Alzheimer's type (AD/SDAT) or multi-infarct dementia (MID); settings: patients with moderate AD/SDAT or MID; Nyth et al. 1988/1990; cited from earlier work
# [2] = test system: depression associated with Alzheimer's disease; settings: C.G. Gottfries, Psychopharmacology, 1988; cited from earlier work
# [3] = Toxicity study, oral administration in rats; format: in vivo; settings: 350 mg/kg orally, male and female SD rats, observed for one week
# Text: In toxicity studies male and female SD rats ranging in weight from 170 g to 200 g were used one day after fasting.
# [4] = test system: carbon dioxide-induced amnesia; experiment: Carbon dioxide-induced amnesia in rats (one-trial passive avoidance test); format: in vivo, Sprague-Dawley (CD) rats; settings: for group mean 'step-through' times: oral
# Text: The test employed was a one-trial passive avoidance test in rats, using carbon dioxide asphyxiation to induce amnesia. Female Sprague-Dawley (CD) rats (A. Tick & Son Ltd.) in the body weight range 160-180g were used for the study. The one-trial passive avoidance apparatus consisted of a 32 x 32 x 32 cm chamber with opaque walls and a metal grid floor. A 6 cm wide , 25 cm long runway protruded from the front wall of the chamber. The runway was illuminated while the chamber was dark. When placed on the runway, a rat could enter the chamber through a 6 x 6 cm opening. A scrambled footshock could be delivered through the metal grid floor of the chamber. On the first day of the experiment, the rats received three pre-treatment training trials, during which each animal was placed on the end of the runway and the time taken to enter the chamber (the 'step-through' latency) was determined. On the second day of the experiment, groups of 10 animals were treated p.o. with test compound dissolved in saline or with saline. One hour after administration, an acquisition trial was performed. This was similar to a training trial, except that the rats received a footshock of 1.0 mA for 10 s commencing 10 s after entering the chamber. Immediately after the application of the footshock the animals were subjected to amnesic treatment. Amnesic treatment consisted of placing the rats in a box filled with carbon dioxide until respiratory arrest occurred; the rats were then revived by artificial respiration. 24 Hours after the acquisition trial, a single retrieval trial was given to each rat and the time taken to enter the chamber ('step-through' latency) was recorded for each animal.
# [5] = test system: ischemia induced hippocampal neuronal damage; experiment: Ischemia-induced hippocampal death in gerbils; format: in vivo, Mongolian gerbils; settings: for Survival neurons/mm mean: counted along CA1 after seven days; for protective effect against neuronal lesions: vs vehicle
# Protocol: Test compounds were administered intraperitoneally to Male Mongolian gerbils 30 min before carotid occlusion. Carotid occlusion time was 5 min . Seven days after recovery, the animals were killed, brains removed, sectioned and surviving neurons were counted along CA1 in the hippocampus.
# [6] = test system: vascular dementia (VD, incl. MID); settings: patients with vascular dementia (VD, incl. MID); Nyth et al. 1989; cited from earlier work
# [7] = test system: passive avoidance in ischemic gerbils; experiment: Step-down passive avoidance in ischemic gerbils; format: in vivo; settings: for Step-down latency [log(s)] Mean: ischemic gerbils, testing phase (max. 60 s); for latency of ischemic gerbils (testing phase): vs ischemic control
# Protocol: The test employed was step-down passive avoidance in gerbils treated with test compounds prior to occlusion of carotid arteries followed by acquisition trial (training phase).
# Test compounds were administered intraperitoneally to gerbils 30 min prior to carotid occlusion or ketamine was administered intraperitoneally 10 min prior to carotid occlusion. The gerbils were anesthetized with 2% halothane contained in a mixture of 70% nitrogen and 30% oxygen. The right and left common carotid arteries were occluded for 5 min. The gerbils were trained for 5 min in a step-down type passive avoidance chamber (16x16x20 cm) two days after induced ischemia. Each gerbil was placed on a safety platform (6x16x20 cm) in the chamber and received a series of mild foot shocks (0.1 mA for 3 s every 6 s), when the gerbil stepped down to a floor made of metal rods. Gerbils were returned to the safety platform for testing 24 h later and their step-down latencies to the grid floor were recorded (max. 60 s). RESULTS
# KCN-induced coma = KCN-induced coma in mice; format: in vivo, mice (Crj:ICR); settings: for coma time: vs vehicle
# Protocol: Male mice (Crj:ICR) weighing 20-30 g were used. The mice were fasted for one day. The drugs, dissolved in saline, were injected intraperitoneally. 30 min after the injection, KCN, dissolved in saline, was injected intravenously at a dose of 1.3 mg/kg. The duration of disappearance of righting reflex was measured as coma time.
# [8] = test system: ischemia-induced death in bilateral carotid arterial ligation (BCAL); experiment: Brain ischemia-induced death in mice (bilateral carotid arterial ligation); format: in vivo, ICR MICE
# Protocol: Male ICR MICE (Charles River) weighing 30 - 40 g were used after they were fasted for 1 day.
# […] Surviving mice were observed over 4 h.
compound,measurement,setting,value
"CN(C)CCCC1(c2ccc(F)cc2)OCc2cc(C#N)ccc21 (stereo not drawn) [Citalopram, citalopram]",effect on intellectual functions,[1],did not appear to have effect
same,"emotional lability, motivation, confusion, fear-panic, irritation, reduced mood and restlessness",[1],significant improvements
same,effect against depression associated with Alzheimer's disease,[2],effective
same,deaths,[3],no deaths were observed
same,Latency,"[4]; 5 mg/kg p.o. one hour before acquisition trial, CO2 treatment +, retrieval trial 24 h later (max. 180 s)",31.2 s
same,Latency (s),"[4]; 10 mg/kg p.o. one hour before acquisition trial, CO2 treatment +, retrieval trial 24 h later (max. 180 s)",77.2** s
same,Latency (s),"[4]; 20 mg/kg p.o. one hour before acquisition trial, CO2 treatment +, retrieval trial 24 h later (max. 180 s)",114.3*** s
same,group mean 'step-through' times,[4]; 2 highest doses tested (i.e. 20 and 40 mg/kg),marked and highly significant increase
same,group mean 'step-through' times,"[4]; all doses tested, vs saline-treated control group",dose-related increases
same,Survival neurons/mm mean,[5]; 20 mg/kg i.p. 30 min before 5 min carotid occlusion,38.0 neurons/mm
same,protective effect against neuronal lesions,[5]; 20 mg/kg,weak but non-significant protective effect
same,Survival neurons/mm mean,[5]; 40 mg/kg i.p. 30 min before 5 min carotid occlusion,95.8 neurons/mm
same,protective effect against neuronal lesions,[5]; 40 mg/kg,significant (p < 0.05 ) protective effect
same,emotional disturbances,[6],no significant improvement
same,Step-down latency [log(s)] Mean,[7]; 20 mg/kg i.p. 30 min prior to carotid occlusion,1.386 log(s)
same,latency of ischemic gerbils (testing phase),[7]; 20 mg/kg,significantly increased the latency
same,Coma time (s) Mean,KCN-induced coma; 1.25 mg/kg i.p. 30 min before KCN 1.3 mg/kg i.v.,38.5 s
same,Coma time (s) Mean,KCN-induced coma; 2.5 mg/kg i.p. 30 min before KCN 1.3 mg/kg i.v.,33.2 s
same,Coma time (s) Mean,KCN-induced coma; 5 mg/kg i.p. 30 min before KCN 1.3 mg/kg i.v.,35.0 s
same,Coma time (s) Mean,KCN-induced coma; 10 mg/kg i.p. 30 min before KCN 1.3 mg/kg i.v.,27.4 s
same,coma time,KCN-induced coma; 10 mg/kg intraperitoneal,significantly reduced coma time
CC(C(O)c1ccc(O)cc1)N1CCC(Cc2ccccc2)CC1 (stereo not drawn) [Ifenprodil],Survival rate (%) 2 h after BCAL,"[8]; 30 mg/kg,p.o., 30 min prior to ligation, 2 h after BCAL",47** %
same,Survival rate (%) 4 h after BCAL,"[8]; 30 mg/kg,p.o., 30 min prior to ligation, 4 h after BCAL",20%
same,ischemia-induced death / survival rate 2 h after ligation,"[8]; 30 mg/kg, 2 h after bilateral carotid arterial ligation, vs saline",significantly increased survival rate
same,ischemia-induced death / survival rate 4 h after ligation,"[8]; 30 mg/kg, 4 h after bilateral carotid arterial ligation, vs saline",did not significantly increase survival rate
"C1=Cc2cccc(OCC3CNCCO3)c2C1 (stereo not drawn) [Indeloxazine, reference compound]",Step-down latency [log(s)] Mean,[7]; 40 mg/kg i.p. 30 min prior to carotid occlusion,1.085 log(s)
same,latency of ischemic gerbils (testing phase),[7]; 40 mg/kg,not significantly different
same,Coma time (s) Mean,KCN-induced coma; 20 mg/kg i.p. 30 min before KCN 1.3 mg/kg i.v.,13.8 s
same,coma time,KCN-induced coma; 20 mg/kg,significantly reduced the coma time
"CNC1(c2ccccc2Cl)CCCCC1=O (stereo not drawn) [Ketamine, reference compound]",Survival neurons/mm mean,[5]; 100 mg/kg i.p. before 5 min carotid occlusion,174.5 neurons/mm
same,protective effect against neuronal lesions,[5]; 100 mg/kg,significant (p < 0.01) protective effect
same,Step-down latency [log(s)] Mean,[7]; 120 mg/kg i.p. 10 min prior to carotid occlusion,1.348 log(s)
same,latency of ischemic gerbils (testing phase),[7]; 120 mg/kg,significantly increased the latency
"NC(=O)CN1CCCC1=O [Piracetam, reference compound]",Latency (s),"[4]; 300 mg/kg p.o. one hour before acquisition trial, CO2 treatment +, retrieval trial 24 h later (max. 180 s)",108.8*** s
same,time of entry ('step-through' latency) compared with vehicle,"[4]; oral doses of 40 or 1000 mg/kg, indicates no marked muscle incoordination or CNS effects",no significant differences
same,'step-through' latencies,"[4]; piracetam treatment, dose not given",statistically significantly longer
